The values below come from PubChem BioAssay AID1996.

Converted amounts (≈) assume the structure as drawn.

The conditions of this data set: buffer; pH 7.4; 200.0 µM.
A word on the solubility (kinetic): it is solubility judged after dilution from a stock solution rather than from solid. As for `O=C(N/N=C/c1cc(Cl)cc([N+](=O)[O-])c1O)C1CC1`, the kinetic solubility was more than 42.6 µg/mL.
The figure for `COc1ccc(OC)c(C(=O)NC2CCSc3ccccc32)c1` (configuration not stated) is 12.1 µg/mL (≈ 36.7 µM).
The figure for `COc1c(Cl)cc(Cl)cc1C(=O)Nc1ccc(CN2CCOCC2)cc1` is 2.6 µg/mL (≈ 6.58 µM); for `O=C(c1cc([N+](=O)[O-])ccc1N1CCCC1)N1CCCCC1` it is 25.9 µg/mL (≈ 85.4 µM).
The figure for `O=C(NCCN1CCOCC1)c1cccc(Br)c1` is 46.4 µg/mL (≈ 148 µM); for `CSc1cc(C)c(OCC(=O)Nc2ccc(NC(C)=O)cc2)c(C)c1` it is 4.4 µg/mL (≈ 12.3 µM); for `CC1CCN(C(=O)/C(=C\c2ccccc2)NC(=O)c2ccccc2)CC1` it is 52.2 µg/mL (≈ 150 µM).
`CC(C)[C@H](NC(=O)c1ccccc1Cl)C(=O)OCC(=O)NC(=O)NCc1ccco1` displayed a solubility (kinetic) of 40.1 µg/mL (≈ 92 µM).
The figure for `Cc1ccc(Oc2ccc(NS(=O)(=O)c3cccc(C(=O)O)c3)cc2)cc1` is 57.2 µg/mL (≈ 149 µM).
The figure for `COc1ccc(CCNC(=O)Nc2cccc([N+](=O)[O-])c2)cc1` is 2.3 µg/mL (≈ 7.29 µM).
The figure for `N/C(=N\O)c1ccc([N+](=O)[O-])s1` is more than 28.1 µg/mL; for `CC(=O)Nc1ccc(S(=O)(=O)NC(C(=O)O)C(C)O)cc1` (configuration not stated) it is more than 47.4 µg/mL; for `O=C(NCC1CCCO1)c1ccccc1NS(=O)(=O)c1cc([N+](=O)[O-])ccc1Cl` (configuration not stated) it is more than 66 µg/mL.
Turning to `Cc1ccc(Cl)cc1NC(=O)NCc1ccccn1`, the solubility (kinetic) turned out to be 36.5 µg/mL (≈ 132 µM).
The figure for `CC1(C)CC2(C)OCCN2C(=S)N1` (configuration not stated) is more than 30 µg/mL.
The figure for `COc1ccc(CCNC(=O)COC(=O)/C=C/c2cc(OC)ccc2OC)cc1` is 5.3 µg/mL (≈ 13.3 µM); for `Cc1nc([N+](=O)[O-])c(C(=O)O)n1C` it is more than 27.8 µg/mL.
The figure for `O=C(NC1CCCCNC1=O)c1ccco1` (configuration not stated) is more than 33.3 µg/mL.
`CC(C)(C)n1cnc2cc(NCc3ccccc3O)ccc21` came in with a kinetic solubility of 34.5 µg/mL (≈ 117 µM).
The figure for `O=C(O)C1CCN(c2ccccc2[N+](=O)[O-])CC1` is more than 37.5 µg/mL; for `Fc1ccc(OCCOCCOc2cccc3[nH]ccc23)cc1` it is 16.3 µg/mL (≈ 51.7 µM).
The figure for `O=C(Nc1ccccc1N1CCOCC1)c1ccc2c(c1)OCCO2` is 5.6 µg/mL (≈ 16.5 µM); for `COc1ccc2oc(=N)c(C(=O)Nc3ccccc3Cl)cc2c1` it is 0.8 µg/mL (≈ 2.43 µM).
The figure for `CC(=O)Nc1ccc(NC(=O)c2cccc(S(=O)(=O)N3CCCCCC3)c2)cc1` is 5.3 µg/mL (≈ 12.8 µM); for `COc1ccc(N(C)C(=O)Nc2ccc3nsnc3c2)cc1` it is 27.5 µg/mL (≈ 87.5 µM).
`Br.O=C(CN1CCCCC1)c1ccccc1F` had a solubility (kinetic) of more than 45.3 µg/mL.
The figure for `CC1CCCCN1C(=O)COC(=O)c1ccc(N2CCCC2=O)cc1` (configuration not stated) is more than 51.7 µg/mL.
The figure for `O=C(NCCc1ccccc1)C1CCN(Cc2cccc3ccccc23)CC1` is 6.2 µg/mL (≈ 16.6 µM); for `COC(=O)/C(C#N)=C/c1ccc(N2CCOCC2)c([N+](=O)[O-])c1` it is 11 µg/mL (≈ 34.7 µM).
`O=[N+]([O-])c1ccc(CN2CCN(c3ccccc3)CC2)o1` had a kinetic solubility of 14.5 µg/mL (≈ 50.5 µM).
The figure for `COc1ccc(-n2c(C)ccc2C)c([N+](=O)[O-])c1` is 22.7 µg/mL (≈ 92.2 µM).
The figure for `CCOc1ccccc1C(=O)N[C@H](C(=O)OCc1csc(CC(=O)Nc2ccc(C)cc2)n1)C(C)C` is 6.9 µg/mL (≈ 13.5 µM); for `O=C1c2ccccc2C(=O)C1c1ccccn1` it is 14.2 µg/mL (≈ 63.6 µM); for `CC(C)Cc1ccc(S(=O)(=O)Nc2cccnc2)cc1` it is 14.3 µg/mL (≈ 49.2 µM).
The figure for `CCOC(=O)C1CCCN(/C=C2\SC(=S)N(CC)C2=O)C1` (configuration not stated) is 39.4 µg/mL (≈ 120 µM).
The molecule `COc1cc(/C=C/C(=O)OCC(=O)N2CCCc3ccccc32)ccc1O` gave a solubility (kinetic) of 33.1 µg/mL (≈ 90.1 µM).
The figure for `O=C(CNS(=O)(=O)c1ccc(F)cc1)Nc1ccccc1` is 44.1 µg/mL (≈ 143 µM).
The figure for `COc1cccc(C(N)=O)c1OC(=O)Cc1ccccc1F` is more than 45.5 µg/mL; for `O=C(O)CCSc1ncnc2sc(-c3ccccc3)cc12` it is more than 47.5 µg/mL; for `Cc1ccc(NC(=O)c2cc3c(=O)oc4ccc(C)cc4c3s2)nc1` it is less than 0.4 µg/mL.
The molecule `c1ccc(C2CN3CCC2CC3)cc1` (configuration not stated) had a solubility (kinetic) of more than 28.1 µg/mL.
The figure for `Cc1cc(N2CCCCC2C)nc(-c2ccccc2O)n1` (configuration not stated) is 0.5 µg/mL (≈ 1.76 µM).
Consider `Nc1ccc(OCc2ccco2)cc1`, for which the kinetic solubility stood at 19.5 µg/mL (≈ 103 µM).
With `O=C(CN1C(=O)c2cccc3cccc(c23)C1=O)NCCCO`, the kinetic solubility was more than 46.8 µg/mL.
The figure for `CN1CCN(S(=O)(=O)c2ccc(NC(=O)c3cccc(F)c3)cc2)CC1` is more than 56.6 µg/mL; for `O=C(Cc1ccc(Br)cc1)OCC(=O)c1ccc[nH]1` it is 10.3 µg/mL (≈ 32 µM).
The figure for `O=C(C#Cc1ccccc1)Nc1ccc(F)cc1` is 2.4 µg/mL (≈ 10 µM); for `Cc1[nH]c2ccccc2c1C(=O)C(=O)N1CCN(C)CC1` it is more than 42.8 µg/mL; for `Cc1ccc(C2CC3CCC(C2)N3Cc2ccccc2F)cc1` (configuration not stated) it is 26.8 µg/mL (≈ 86.6 µM).
The figure for `O=C(Cc1nc2ccccc2[nH]1)c1ccc(Br)cc1` is 24.6 µg/mL (≈ 78.1 µM); for `CCOC(=O)Cn1cnc2scc(-c3ccc(C)c(C)c3)c2c1=O` it is 22.5 µg/mL (≈ 65.7 µM).
Turning to `O=C(Nc1ccccn1)c1ccc2ccccc2c1O`, the kinetic solubility was 31.4 µg/mL (≈ 119 µM).
The figure for `CC1(C)C(C(=O)N2CCN(C(=O)c3ccccc3)CC2)C1(C)C` is more than 47.2 µg/mL.
The figure for `O=C1C(Cl)=C(N2CCOCC2)C(=O)N1c1ccccc1F` is 38.7 µg/mL (≈ 125 µM); for `Cc1ccc(NC(=O)CCn2c(=S)oc3ccccc32)cc1F` it is less than 0.4 µg/mL; for `CCC(C)c1ccc(NC(=S)N2CCCC2)cc1` (configuration not stated) it is more than 39.4 µg/mL.
The figure for `Cc1csc2c(=O)sc(NC(=O)c3cccs3)nc12` is 0.6 µg/mL (≈ 1.95 µM).
Take `COc1cc2c(cc1OC)C(c1c(Cl)cccc1Cl)NC(=O)C2` (configuration not stated): the solubility (kinetic) is more than 52.8 µg/mL.
The figure for `CCC(C)[C@H](NC(=O)N1CCC(C)CC1)C(=O)O` (some centres not stated) is more than 38.5 µg/mL; for `O=c1[nH][nH]c2ccccc2c1=O` it is more than 24.3 µg/mL; for `O=C(NC1(O)C(=O)c2ccccc2C1=O)c1ccc(C(F)(F)F)cc1` it is more than 52.4 µg/mL.
The figure for `Cc1noc(C)c1-c1nc(CS(=O)(=O)c2ccc(F)cc2)no1` is 43.4 µg/mL (≈ 129 µM); for `CC(=O)Nc1cccc(NC(=O)C2C3C=CC(C3)C2C(=O)O)c1` (configuration not stated) it is more than 47.2 µg/mL.
The figure for `O=C(CNC(=O)c1cnccc1C(F)(F)F)c1cccc(Cl)c1` is 25.3 µg/mL (≈ 73.8 µM).
`CCOC(=O)C1=C(N)OC2=C(C(=O)CCC2)C12C(=O)N(C)c1ccccc12` (configuration not stated) showed a kinetic solubility of 29.1 µg/mL (≈ 79 µM).
The figure for `O=C(CN1C(=O)COc2ccc(Cl)cc21)N1CCOCC1` is more than 46.6 µg/mL.
As to `Cc1nc(C)c(C(=O)OCC(=O)Nc2cccc(C)c2C)s1`, the kinetic solubility was found to be 39.7 µg/mL (≈ 125 µM).
The figure for `Cc1ccc(NS(=O)(=O)c2ccc(C(=O)NCc3ccccn3)cc2)cc1` is 53.8 µg/mL (≈ 141 µM).
The figure for `COC(=O)c1cc2ccccc2n1S(=O)(=O)c1ccccc1` is less than 0.7 µg/mL; for `N#Cc1ccc(S(=O)(=O)Nc2ccc3ccccc3n2)cc1` it is 27 µg/mL (≈ 87.3 µM); for `CS(=O)(=O)NCC(c1cccnc1)N1CCN(c2ccccc2F)CC1` (configuration not stated) it is 55.4 µg/mL (≈ 146 µM).
The figure for `Cc1ccccc1NC(=O)c1ccc(S(=O)(=O)N2CCCC2)cc1` is more than 51.7 µg/mL; for `CC(CO)NCC12CC3CC(CC(C3)C1)C2.Cl` (configuration not stated) it is more than 39 µg/mL.
Molecule `Nc1nc(C23CC4CC(CC(Cl)(C4)C2)C3)cs1` gave a kinetic solubility of 8.5 µg/mL (≈ 31.6 µM).
With `Cc1onc(-c2c(Cl)cccc2Cl)c1/C(N)=N/OC(=O)C1CC1`, the kinetic solubility stood at 47.1 µg/mL (≈ 133 µM). This solubility kinetic lies about 5.5-fold higher than the previous one.
As to `Cc1cc(F)ccc1NC(=O)Cn1c(C)csc1=O`, the kinetic solubility is more than 42 µg/mL.
The figure for `COc1cccc(NC(=O)CN2CCSc3ccccc32)c1` is 25.5 µg/mL (≈ 81.1 µM); for `CC1(C)C(=O)Nc2ccccc2N1C(=O)COC(=O)c1cccc(O)c1` it is 20.3 µg/mL (≈ 57.3 µM).
The molecule `Cl.c1ccc(CNc2c3c(nc4ccccc24)CCC3)cc1` gave a kinetic solubility of more than 46.6 µg/mL.
The figure for `COc1cccc(Oc2ccc(S(=O)(=O)N3CCOCC3)cc2[N+](=O)[O-])c1` is 11 µg/mL (≈ 27.9 µM); for `Cc1cc(C)n2nc(SCC(=O)NC3CCCCC3)nc2n1` it is more than 47.9 µg/mL.
The figure for `CCN1CCN(C(=O)NC2CC(=O)N(c3ccc(OC)cc3)C2)CC1` (configuration not stated) is more than 52 µg/mL; for `COc1ccc(/C=C/c2c([N+](=O)[O-])c(=O)n(C)c(=O)n2C)cc1` it is 3.4 µg/mL (≈ 10.7 µM).
As for `CCn1c(NC(=O)/C=C/c2ccc(F)cc2)nc2ccccc21`, the kinetic solubility was found to be 3.5 µg/mL (≈ 11.3 µM). The solubility kinetic values of the last two molecules are within 1.5-fold of each other.
The figure for `COc1cccc(S(=O)(=O)Nc2noc3ccccc23)c1` is 37.6 µg/mL (≈ 124 µM).
As for `CC1=NOC(=O)/C1=C/c1ccc(O)c(Br)c1`, the solubility (kinetic) came out at 32.4 µg/mL (≈ 115 µM).
The figure for `CC(=O)N1c2ccc(C)cc2C(c2ccccc2)CC1C` (configuration not stated) is 40.6 µg/mL (≈ 145 µM); for `COc1ccccc1C(=O)NC(=O)CSc1nnc(C)s1` it is more than 48.5 µg/mL.
The figure for `CCOC(=O)/C(=C/c1cn(C)c2ccccc12)NC(=O)c1ccccc1` is 3.2 µg/mL (≈ 9.18 µM); for `CCN(CC)S(=O)(=O)c1cccc(-c2cn3cccnc3n2)c1` it is 11.1 µg/mL (≈ 33.6 µM); for `CCOC(=O)c1sc(=S)n(C)c1NC(=O)c1ccc(C(C)(C)C)cc1` it is 3.4 µg/mL (≈ 8.98 µM).
The figure for `O=C(CCCCCN1C(=O)c2ccccc2C1=O)Nc1cccc(O)c1` is 38.4 µg/mL (≈ 109 µM).
`CNC(=O)O/N=C(\N)Cc1csc2ccccc12` registered a kinetic solubility of 39.2 µg/mL (≈ 149 µM). This solubility kinetic and that of the molecule before are within 1.5-fold of each other.
The figure for `O=C(CN1C(=O)c2ccccc2C1=O)Nc1cccc(Cl)c1` is 21.2 µg/mL (≈ 67.4 µM); for `COc1ccc2[nH]c(C(=O)Nc3ccc(C)c(F)c3)cc2c1` it is 0.7 µg/mL (≈ 2.35 µM).
For the molecule `O=C(NCC1OCCc2ccccc21)C1COc2ccccc2O1` (configuration not stated), the solubility (kinetic) was more than 48.8 µg/mL.
The figure for `CCOc1ccc(S(=O)(=O)NC(C)C(=O)NCc2ccncc2)cc1` (configuration not stated) is more than 54.5 µg/mL; for `O=C(C=C1NCCN1)c1ccccc1` it is more than 28.2 µg/mL; for `Cc1cccc(CC(=O)NCCN2CCOCC2)c1` it is more than 39.4 µg/mL.
The figure for `Oc1[nH]c(=S)sc1C=C1N=c2ccccc2=N1` is more than 39.2 µg/mL.
The figure for `CCOc1ccc(-n2c(C)c(C(C)=O)c3cc(OC(C)=O)ccc32)cc1` is less than 0.8 µg/mL; for `Cc1ncc(CN2CCN(CCc3ccccc3)C(CCO)C2)s1` (configuration not stated) it is 39.7 µg/mL (≈ 115 µM).
